The record followed here is patent publication US11548849B2, “Alcohol derivatives as KV7 potassium channel openers” (H. Lundbeck A/S, priority 2019, dated 2023).

Molecules are shown by their SMILES.

One assay addresses T1, hKv7.2/hKv7.3 (Homo sapiens, UniProt O43525+O43526).
T1 construct: P2A self-cleaving peptide (between Kv7.3 and Kv7.2; the remnant would stay on the upstream protein) (C); expressed in transfected cells
Put plainly: Thallium influx assay for potassium channel activation. In kind it is cell-based. To be noted: HEK-hKv7.2/hKv7.3 cells; FLIPR Potassium Assay kit; AUC readout normalized to a reference compound. As for the experimental part: (§1) A synthesized cDNA fragment encoding human Kv7.3 and human Kv7.2 separated by a P2A sequence was inserted into the pcDNA5/FRT/TO vector using the BamHI and XhoI restriction sites. The construct was then transfected into HEK Flp-In 293 cells using Lipofectamine2000. The transfected cells were grown for 48 hours in DMEM containing 10% (v/v) FBS and 1% PenStrep and subsequently maintained under selection in DMEM containing 10% (v/v) FBS, 1% PenStrep and 200 ug/mL Hygromycin B at 37° C. in a humidified atmosphere of 5% CO2.
The thallium influx assay for potassium channel activation was performed analogously to a published procedure (C. D. Weaver, et al., J Biomol Screen 2004, 9, 671-677) using the FLIPR Potassium Assay kit (Molecular Devices). HEK-hKv7.2/hKv7.3 cells were plated onto 96-well, black-walled, clear-bottomed culture plates (Corning, Acton, Mass., USA) at a density of 80,000 cells/well (100 μl/well) if the cells were assayed the following day, or 40,000 cells/well (100 μl/well) if the cells were assayed two days after seeding.
On the assay day, the medium was removed after which 50 uL/well of test compound diluted to 2× final concentration in HBSS containing 20 mM HEPES, and 50 uL/well of 2× dye load buffer were added. The cells were then incubated for 60 min at room temperature in the dark. Chloride-free stimulation buffer containing Tl^+ and K^+ at 5× final concentration (5× concentration: 5 mM in both cases) and test compound at 1× final concentration, were prepared during the incubation. The cells were then assayed in a FDSS7000EX Functional Drug Screening System (Hamamatsu). Following 60 sec of baseline fluorescence signal reading at 0.1 Hz, and 10 sec at 1 Hz, 25 uL/well of stimulation buffer were added and the fluorescence continuously measured for 50 sec at 1 Hz followed, by 4 min at 0.1 Hz. Compound effect was quantified using AUC as readout and normalized to a reference compound, which was included on each plate.
Consider `O=C(CC1(O)CC(F)(F)C1)N[C@@H](COC(F)F)c1cccc(OC(F)F)c1` [Example 26, (R)-2-(3,3-difluoro-1-hydroxycyclobutyl)-N-(2-(difluoromethoxy)-1-(3-(difluoromethoxy)phenyl)ethyl)acetamide], for which the EC50 came to 0.96 µM. Still for that read-out and setting: the same measure for `O=C(CC1(O)CC(F)(F)C1)N[C@@H](COC(F)F)c1cccc(OC(F)(F)F)c1` [Example 27, (R)-2-(3,3-difluoro-1-hydroxycyclobutyl)-N-(2-(difluoromethoxy)-1-(3-(trifluoromethoxy)phenyl)ethyl)acetamide]: 2.3 µM. Take `O=C(CC1(O)CC(F)(F)C1)N[C@@H](COC1CC1)c1cccc(OC(F)(F)F)c1` [Example 28, (R)—N-(2-cyclopropoxy-1-(3-(trifluoromethoxy)phenyl)ethyl)-2-(3,3-difluoro-1-hydroxycyclobutyl)acetamide]: a half-maximal response (EC50) required 3.2 µM.

The molecule `O=C(CC1(O)CC(F)(F)C1)N[C@@H](COC1CC1)c1cccc(OC(F)F)c1` [Example 29, (R)—N-(2-cyclopropoxy-1-(3-(difluoromethoxy)phenyl)ethyl)-2-(3,3-difluoro-1-hydroxycyclobutyl)acetamide] returned an EC50 of 5.4 µM. `O=C(CC1(O)CC(F)(F)C1)N[C@@H](COC(F)(F)F)c1cccc(OC(F)F)c1` [Example 30, (R)-2-(3,3-difluoro-1-hydroxycyclobutyl)-N-(1-(3-(difluoromethoxy)phenyl)-2-(trifluoromethoxy)ethyl)acetamide] returned an EC50 of 1.8 µM. On the same count and under the same terms, under `CCC[C@H](NC(=O)CC1(O)CC(F)(F)C1)c1cccc(OC(F)F)c1` [Example 31, (S)-2-(3,3-difluoro-1-hydroxycyclobutyl)-N-(1-(3-(difluoromethoxy)phenyl)butyl)acetamide] stands 2.6 µM; under `O=C(CC1(O)CC(F)(F)C1)N[C@@H](CCC(F)F)c1cccc(OC(F)F)c1` [Example 32, (S)-2-(3,3-difluoro-1-hydroxycyclobutyl)-N-(1-(3-(difluoromethoxy)phenyl)-4,4-difluorobutyl)acetamide], 2.5 µM; under `CC[C@H](NC(=O)CC1(O)CC(F)(F)C1)c1cccc(OC(F)(F)F)c1` [Example 33, (S)-2-(3,3-difluoro-1-hydroxycyclobutyl)-N-(1-(3-(trifluoromethoxy)-phenyl)propy) acetamide], 2.1 µM. Take `N#CC[C@H](NC(=O)CC1(O)CC(F)(F)C1)c1cccc(OC(F)(F)F)c1` [Example 34, (S)—N-(2-cyano-1-(3-(trifluoromethoxy)phenyl)ethyl)-2-(3,3-difluoro-1-hydroxycyclobutyl)acetamide]: the EC50 was found to be 2.5 µM. In turn, `O=C(CC1(O)CC(F)(F)C1)N[C@@H](CC(F)F)c1cccc(OC(F)(F)F)c1` [Example 35, (S)—N-(3,3-difluoro-1-(3-(trifluoromethoxy)phenyl)propyl)-2-(3,3-difluoro-1-hydroxycyclobutyl)acetamide] came in with a concentration giving a half-maximal response (EC50) of 3.5 µM.

The target of another assay is T1, hKv7.2/hKv7.3. Put plainly: Automated whole cell patch-clamp functional test of HEK-hKv7.2/hKv7.3 cell line. It counts as cell-based. Particulars: stable HEK-hKv7.2/hKv7.3 cell line. As for the experimental part: as §1
Take `CCOC(=O)Nc1ccc(NCc2ccc(F)cc2)cc1N` [Retigabine, N-(2-amino-4-(4-fluorobenzylamino)-phenyl) carbamic acid ethyl ester]: the “effect on Kv7-current” value is recorded as “potentiated”.

Take `O=C1c2ccccc2C(Cc2ccncc2)(Cc2ccncc2)c2ccccc21` [XE991]: the “effect on Kv7-current” value is listed as “sensitive”.
